Test results reported in patent publication US12157730B2, “Heteroaryl derivative, method for producing same, and pharmaceutical composition comprising same as effective component” (VORONOI INC., priority 2019, dated 2024).

Legend:
Format in all cases: cell-based
[1] = tested on: Ba/F3 cell naive; assay: Ba/F3 cell proliferation suppression, naive; settings: Mus musculus, BaF3; 72 hours after treatment, CellTiter-Glo
Description: (§1) The following experiment was carried out to evaluate the suppression activity of the compounds according to the present invention against proliferation of Ba/F3 and lung cancer cells which express EGFR mutations.
(§2) Of the cancer cell lines expressing the EGFR gene, A549 was cultured after adding 10% FBS (HyClone) to DMEM (Invitrogen), and RPMI-1640 (Invitrogen) with 10% FBS was used for the other cancer cells. For the Ba/F3 cells, RPMI-1640 with 10% FBS and 5 ng/ml IL-3 (R&D Systems) was used. The transduced Ba/F3 cells were cultured by adding 1 ug/ml puromycin (Invitrogen) to the same medium.
(§3) 24 hours before treatment with the compounds, 3000 to 5000 cells were distributed into each well of a white clear bottom 96 well plate (Corning). The compounds were diluted in dimethylsulfoxide (dilution ratio 3:1; 12 concentrations total) and injected 0.5 ul each for a final concentration of 0.3 nM to 50 um. As for measurement of live cells, 72 hours after treatment with the compounds, a CellTiter-Glo luminescent cell-viability reagent (Promega) was used to store the cells at room temperature for 10 minutes, followed by measurement of luminescence using a reader (SynergyNeo, Biotek). Each test was repeated three times.
(§4) The result was calculated as a cell growth ratio (%) compared to a control. The program GraphPad Prism version 5.0 was used to draw the graphs and calculate the GI50 values.

[2] = molecular target: T1, Ba/F3 cell EGFR L858R/T790M (Homo sapiens, UniProt P00533, L858R/T790M); assay: Ba/F3 cell proliferation suppression, EGFR L858R/T790M; settings: 72 hours after treatment, CellTiter-Glo
T1 construct: expressed in transfected cells; host or cells: Ba/F3
Description: as §1, §2, §3, §4

[3] = molecular target: T2, Ba/F3 cell EGFR Exon20 ins NPH (Homo sapiens, UniProt P00533, INS773NPH); assay: Ba/F3 cell proliferation suppression, EGFR Exon20 ins NPH; settings: for GI50: 72 hours after treatment, CellTiter-Glo; for Ba/F3 (NPH) Activity: GI50 class, Ba/F3 cell line with NPH inserted at Exon20 of EGFR, 72 hours
T2 construct: expressed in transfected cells; host or cells: Ba/F3
How it was run: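 Seed 3000–5000 cells/well; after 24 h add compound (12 conc., 0.3 nM–50 um final); incubate 72 h; add CellTiter-Glo, 10 min room temperature; read luminescence; GI50 from % growth vs control, triplicate.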

[4] = molecular target: T3, Ba/F3 cell EGFR Exon20 ins ASV (Homo sapiens, UniProt P00533, INS769ASV); assay: Ba/F3 cell proliferation suppression, EGFR Exon20 ins ASV; settings: 72 hours after treatment, CellTiter-Glo
T3 construct: expressed in transfected cells; host or cells: Ba/F3
Description: as §1, §2, §3, §4

[5] = tested on: Ba/F3 cell EGFR Del19/T790M; assay: Ba/F3 cell proliferation suppression, EGFR Del19/T790M; settings: 72 hours after treatment, CellTiter-Glo
Description: as §1, §2, §3, §4

[6] = molecular target: T4, Ba/F3 cell EGFR L858R (Homo sapiens, UniProt P00533, L858R); assay: Ba/F3 cell proliferation suppression, EGFR L858R; settings: 72 hours after treatment, CellTiter-Glo
T4 construct: expressed in transfected cells; host or cells: Ba/F3
Description: as §1, §2, §3, §4

SMILES	GI50 [1] [µM]	GI50 [2] [µM]	GI50 [3] [µM]	Ba/F3 (NPH) Activity [3]	GI50 [4] [µM]	GI50 [5] [µM]	GI50 [6] [µM]
C=CC(=O)Nc1cc(Nc2cc(N3OCC[C@@H]3c3cc(F)cc(F)c3)ncn2)c(OC)cc1N1CCC(N2CC[C@H](N(C)C)C2)CC1 [Example 250, N-(5-((6-((R)-3-(3,5-difluorophenyl)isoxazolidine-2-yl)pyrimidine-4-yl)amino)-2-(4-((S)-3-(dimethylamino)pyrolidine-1-yl)piperidine-1-yl)-4-methoxyphenyl) acrylamide]	≥ 5	< 0.05	< 0.05	A (GI50 < 50 nM)	–	–	–
C=CC(=O)Nc1cc(Nc2cc(N3OCC[C@@H]3c3cc(F)cc(F)c3)ncn2)c(OC)cc1N1CCN(CC)CC1 [Example 240, N-(5-((6-((R)-3-(3,5-difluorophenyl)isoxazolidine-2-yl)pyrimidine-4-yl)amino)-2-(4-ethylpiperazine-1-yl)-4-methoxyphenyl) acrylamide]	≥ 5	< 0.05	< 0.05	A (GI50 < 50 nM)	< 0.05	–	–
C=CC(=O)Nc1cc(Nc2cc(N3OCC[C@@H]3c3cc(F)cc(F)c3)ncn2)c(OC)cc1N1CCC(N2CC[C@@H](N(C)C)C2)CC1 [Example 237, N-(5-((6-((R)-3-(3,5-difluorophenyl)isoxazolidine-2-yl)pyrimidine-4-yl)amino)-2-(4-((R)-3-(dimethylamino)pyrolidine-1-yl)piperidine-1-yl)-4-methoxyphenyl) acrylamide]	≥ 5	< 0.05	< 0.05	A (GI50 < 50 nM)	< 0.05	–	–
C=CC(=O)Nc1cc(Nc2cc(N3OCC[C@H]3c3ccccc3)ncn2)c(OC)cc1N1CCOCC1 [Example 2, N-(4-methoxy-2-morpholino-5-((6-((S)-3-phenylisoxazolidine-2-yl)pyrimidine-4-yl)amino)phenyl) acrylamide]	≥ 5	0.5 to 5	–	–	–	0.5 to 5	0.05 to 0.5
C=CC(=O)Nc1cc(Nc2cc(N3OCC[C@@H]3c3cc(F)cc(F)c3)ncn2)c(OC)cc1N1CCC(N2CCN(C(C)=O)CC2)CC1 [Example 251, N-(2-(4-(4-acetylpiperazine-1-yl)piperidine-1-yl)-5-((6-((R)-3-(3,5-difluorophenyl)isoxazolidine-2-yl)pyrimidine-4-yl)amino)-4-methoxyphenyl) acrylamide]	≥ 5	< 0.05	< 0.05	A (GI50 < 50 nM)	–	–	–
C=CC(=O)Nc1cc(Nc2cc(N3OCC[C@@H]3c3ccccc3)ncn2)c(OC)cc1OCCN(C)C [Example 8, N-(2-(2-(dimethylamino)ethxy)-4-methoxy-5-((6-(R)-3-phenylisoxazolidine-2-yl)pyrimidine-4-yl-amino)phenyl) acrylamide]	0.5 to 5	0.05 to 0.5	–	–	–	0.05 to 0.5	–
C=CC(=O)Nc1cc(Nc2cc(N3OCC[C@@H]3c3ccccc3)ncn2)c(OC)cc1N1CCN(C2CC2)CC1 [Example 7, N-(2-(4-cyclopropylpiperazine-1-yl)-4-methoxy-5-((6-((R)-3-phenylisoxazolidine-2-yl)pyrimidine-4-yl)amino)phenyl) acrylamide]	≥ 5	0.05 to 0.5	–	–	–	< 0.05	–
C=CC(=O)Nc1cc(Nc2cc(N3OCC[C@@H]3c3cc(F)cc(F)c3)ncn2)c(OC)cc1N1CCC(N2CCC(N(C)C)CC2)CC1 [Example 253]	0.5 to 5	< 0.05	< 0.05	A (GI50 < 50 nM)	–	–	–
C=CC(=O)Nc1cc(Nc2cc(N3OCC[C@@H]3c3ccccc3)ncn2)c(OC)cc1N1CCOCC1 [Example 5, N-(4-methoxy-2-morpholino-5-((6-((R)-3-phenylisoxazolidine-2-yl)pyrimidine-4-yl)amino)phenyl) acrylamide]	≥ 5	0.05 to 0.5	–	–	–	0.05 to 0.5	< 0.05
C=CC(=O)Nc1cc(Nc2cc(N3OCC[C@@H]3c3cc(F)cc(F)c3)ncn2)c(OC)cc1N1CCC(N2C3CC2CN(CC)C3)CC1 [Example 249, N-(5-((6-((R)-3-(3,5-difluorophenyl)isoxazolidine-2-yl)pyrimidine-4-yl)amino)-2-(4-(3-ethyl-3,6-diazabicyclo[3.1.1]heptane-6-yl)piperidine-1-yl)-4-methoxyphenyl) acrylamide]	≥ 5	< 0.05	< 0.05	A (GI50 < 50 nM)	–	–	–
C=CC(=O)Nc1cc(Nc2cc(N3OCC[C@H]3c3ccccc3)ncn2)c(OC)cc1N(C)CCN(C)C [Example 1, N-(2((2-(dimethylamino)ethyl) (methyl)amino)-4-methoxy-5-((6-((S)-3-phenylisoxazolidine-2-yl)pyrimidine-4-yl)amino)phenyl) acrylamide]	≥ 5	0.05 to 0.5	–	–	–	0.05 to 0.5	< 0.05
C=CC(=O)Nc1cc(Nc2cc(N3OCC[C@@H]3c3cc(F)cc(F)c3)ncn2)c(OC)cc1N1CCC(N2CC3CC(C2)N3CC)CC1 [Example 252, N-(5-((6-((R)-3-(3,5-difluorophenyl)isoxazolidine-2-yl)pyrimidine-4-yl)amino)-2-(4-(6-ethyl-3,6-diazabicyclo[3.1.1]heptane-3-yl)piperidine-1-yl)-4-methoxyphenyl) acrylamide]	0.5 to 5	< 0.05	< 0.05	A (GI50 < 50 nM)	–	–	–
C=CC(=O)Nc1cc(Nc2cc(N3OCC[C@@H]3Cc3cccc(F)c3Cl)ncn2)c(OC)cc1N1CCC(N2CCN(C3CC3)[C@@H](C)C2)CC1 [compound 1037, N-(5-((6-((S)-3-(2-chloro-3-fluorobenzyl)isoxazolidine-2-yl)pyrimidine-4-yl)amino)-2-(4-((S)-4-cyclopropyl-3-methylpiperazine-1-yl)piperidine-1-yl)-4-methoxyphenyl) acrylamide]	–	–	–	A (GI50 < 50 nM)	–	–	–
C=CC(=O)Nc1cc(Nc2cc(N3OCC[C@@H]3c3cc(F)cc(F)c3)ncn2)c(OC)cc1N1CCC(N2CC3(COC3)C2)CC1 [Example 103, N-(2-(4-(2-oxa-6-azaspiro[3.3]heptane-6-yl)piperidine-1-yl)-5-((6-((R)-3-(3,5-difluorophenyl)isoxazolidine-2-yl)pyrimidine-4-yl)amino)-4-methoxyphenyl) acrylamide]	–	–	–	A (GI50 < 50 nM)	–	–	–
C=CC(=O)Nc1cc(Nc2cc(N3OCC[C@@H]3c3cccc(C#N)c3)ncn2)c(OC)cc1N1CCC(N2CCOC[C@H]2C)CC1 [compound 388, N-(5-((6-((R)-3-(3-cyanophenyl)isoxazolidine-2-yl)pyrimidine-4-yl)amino)-4-methoxy-2-(4-((R)-3-methylmorpholino)piperidine-1-yl)phenyl) acrylamide]	–	–	–	A (GI50 < 50 nM)	–	–	–
C=CC(=O)Nc1cc(Nc2cc(N3OCC[C@@H]3c3cccc(F)c3Cl)ncn2)c(OC)cc1N1CCC(N2C[C@@H]3CCN(C)[C@@H]3C2)CC1 [compound 448, N-(5-((6-((R)-3-(2-chloro-3-fluorophenyl)isoxazolidine-2-yl)pyrimidine-4-yl)amino)-4-methoxy-2-(4-((3aS,6aS)-1-methylhexahydropyrrolo [3,4-b]pyrrole-5(1H)-yl)piperidine-1-yl)phenyl)acrylamide]	–	–	–	A (GI50 < 50 nM)	–	–	–
C=CC(=O)Nc1cc(Nc2cc(N3OCC[C@@H]3c3cccc(C)c3F)ncn2)c(OC)cc1N1CCN(CC)CC1 [compound 847, N-(2-(4-ethylpiperazine-1-yl)-5-((6-((R)-3-(2-fluoro-3-methylphenyl)isoxazolidine-2-yl)pyrimidine-4-yl)amino)-4-methoxyphenyl) acrylamide]	–	–	–	A (GI50 < 50 nM)	–	–	–
C=CC(=O)Nc1cc(Nc2cc(N3OCC[C@@H]3c3ccc(F)c(Cl)c3F)ncn2)c(OC)cc1N1C[C@@H](C)O[C@@H](C)C1 [compound 667, N-(5-((6-((R)-3-(3-chloro-2,4-difluorophenyl)isoxazolidine-2-yl)pyrimidine-4-yl)amino)-2-((2S,6R)-2,6-dimethylmorpholino)-4-methoxyphenyl) acrylamide]	–	–	–	B (50 nM ≤ GI50 < 500 nM)	–	–	–
